The source of these data is patent US20080293727A1, “Novel sulfonamide inhibitors of aspartyl protease” (priority 1992, published 2008).

For this test, the target named is HIV-1 protease (Human immunodeficiency virus type 1 group M subtype B, UniProt P04585). Nature of the test: Inhibition constants against HIV-1 protease (method of Pennington et al.). The format is biochemical. The settings on record: HIV-1 protease; read-out: Ki value. An excerpt: We measured the inhibition constants of the compounds listed in Table VII against HIV-1 protease using the above-cited method of Pennington et al.
In the case of `CC(C)CN(C[C@@H](O)[C@H](Cc1ccccc1)NC(=O)O[C@H]1CCOC1)S(=O)(=O)c1cccc(Cl)c1` [Compound 138, 3-Chloro-N-((2 syn,3S)-2-hydroxy-4-phenyl-3-((S)-tetrahydrofuran-3-yloxycarbonylamino)-butyl)-N-isobutyl-benzenesulfonamide], the Ki amounted to 1.4 nM.

For the molecule `CC(=O)Nc1ccc(S(=O)(=O)N(CC2CCCCC2)C[C@@H](O)[C@H](Cc2ccccc2)NC(=O)O[C@H]2CCOC2)cc1` [Compound 160, N-(4-(Cyclohexylmethyl)-((2 syn,3S)-2-hydroxy-4-phenyl-3-((S)-tetrahydrofuran-3-yloxycarbonylamino)-butyl)-sulfamoyl-phenyl)-acetamide], the Ki amounted to 1 nM.

Consider `C=C(C)COC(=O)N[C@@H](Cc1ccccc1)[C@H](O)CN(CC(C)C)S(=O)(=O)c1ccc(F)cc1` [Compound 107], for which the Ki came out at 1.4 nM.

Consider `NC(=O)C[C@H](NC(=O)c1ccc2ccccc2n1)C(=O)N[C@@H](Cc1ccccc1)[C@H](O)CN(Cc1ccccc1)S(=O)(=O)c1cccc2nonc12` [Compound 9, (S)-N-1-(3-((Benzo(1,2,5)oxadiazole-4-sulfonyl)-benzyl-amino)-(1S,2 syn)-1-benzyl-2-hydroxy-propyl)-2-((quinoline-2-carbonyl)-amino)-succinamide], for which the Ki is 4 nM.

With `C=C(C)CN(C[C@@H](O)[C@H](Cc1ccccc1)NC(=O)O[C@H]1CCOC1)S(=O)(=O)c1ccc(NC(C)=O)cc1` [Compound 134], the Ki amounted to 8.4 nM.

In the case of `CC(=O)Nc1ccc(S(=O)(=O)N(C)C[C@@H](O)[C@H](Cc2ccccc2)NC(=O)OC(C)(C)C)cc1` [Compound 128], the Ki was greater than 5000 nM.

Take `CC(C)CN(C[C@@H](O)[C@H](Cc1ccccc1)NC(=O)[C@H](CC(N)=O)NC(=O)c1ccc2ccccc2n1)S(=O)(=O)c1ccc(F)cc1` [Compound 14, (S)-N-1-(1-(S)-Benzyl-3-((4-fluoro-benzenesulfonyl)-isobutyl-amino)-2-(syn)-hydroxy-propyl)-2-((quinoline-2-carbonyl)-amino)-succinamide]: the Ki was determined as 0.1 nM.

`CC(C)CN(C[C@@H](O)[C@H](Cc1ccccc1)NC(=O)OC(C)(C)C)S(=O)(=O)c1cccc2nonc12` [Compound 58]: the Ki came out at 34 nM.

Consider `C=C(C)CN(C[C@@H](O)[C@H](Cc1ccccc1)NC(=O)O[C@H]1CCOC1)S(=O)(=O)c1ccc(F)cc1` [Compound 135], for which the Ki is 2.7 nM.

As to `CC(=O)Nc1ccc(S(=O)(=O)N(CC(C)C)C[C@@H](O)[C@H](Cc2ccccc2)NC(=O)O[C@H]2CCOC2)cc1Cl` [Compound 53], the Ki turned out to be 27 nM.

In the case of `CC(=O)Nc1ccc(S(=O)(=O)N(CC(C)C)C[C@@H](O)[C@H](Cc2ccccc2)NC(=O)OCC(C)C)cc1` [Compound 28], the Ki was 17 nM.

Regarding `O=C(N[C@@H](Cc1ccccc1)[C@H](O)CN(CC1CCCC1)S(=O)(=O)c1ccc(Cl)cc1)O[C@H]1CCOC1` [Compound 116, 4-Chloro-N-cyclopentylmethyl-N-((2 syn,3S)-2-hydroxy-4-phenyl-3-((S)-tetrahydrofuran-3-yloxycarbonylamino)-butyl)-benzenesulfonamide], the Ki is less than 0.1 nM.

Consider `C=C(COC)COC(=O)N[C@@H](Cc1ccccc1)[C@H](O)CN(CC1CCCC1)S(=O)(=O)c1ccc(OC)cc1` [Compound 162], for which the Ki was determined as 0.5 nM.

For `COc1ccc(S(=O)(=O)N(C[C@@H](O)[C@H](Cc2ccccc2)NC(=O)O[C@H]2CCOC2)CC(C)(C)CO)cc1` [Compound 1009], the Ki is 20 nM.

For `O=C(N[C@@H](Cc1ccccc1)[C@H](O)CN(Cc1ccco1)S(=O)(=O)c1ccc(F)cc1)O[C@H]1CCOC1` [Compound 136], the Ki amounted to 18 nM.

In the case of `CC(C)CN(C[C@@H](O)[C@H](Cc1ccccc1)NC(=O)O[C@@H](C)c1ccccc1)S(=O)(=O)c1cccc2nonc12` [Compound 56], the Ki was determined as 60 nM.

With `CN(C)S(=O)(=O)N(Cc1ccccc1)C[C@@H](O)[C@H](Cc1ccccc1)NC(=O)[C@H](CC(N)=O)NC(=O)c1ccc2ccccc2n1` [Compound 11], the Ki was determined as 34 nM.

In the case of `CCOC(=O)N[C@@H](Cc1ccccc1)[C@H](O)CN(CC(C)C)S(=O)(=O)c1ccc(F)cc1` [Compound 121], the Ki is 2 nM.

For `C=CCOC(=O)N[C@@H](Cc1ccccc1)[C@H](O)CN(CC1CCCC1)S(=O)(=O)c1ccc(F)cc1` [Compound 114, N-((3-Allyloxycarbonylamino)-(2 syn,3S)-2-hydroxy-4-phenyl-butyl)-N-cyclopentylmethyl-4-fluoro-benzenesulfonamide], the Ki was determined as 0.35 nM.

For `C=CCOC(=O)N[C@@H](Cc1ccccc1)[C@H](O)CN(CC(C)C)S(=O)(=O)c1ccc(F)cc1` [Compound 122], the Ki amounted to 1.2 nM.

As for `CC(C)CN(C[C@@H](O)[C@H](Cc1ccccc1)NC(=O)OCc1ccccc1)S(=O)(=O)c1ccc(N)c([N+](=O)[O-])c1` [Compound 63], the Ki is 7 nM.

Turning to `COc1ccc(S(=O)(=O)N(CC(C)C)C[C@@H](O)[C@H](Cc2ccccc2)NC(=O)O[C@H]2CCOC2)cc1OC` [Compound 123], the Ki was 10 nM.

With `CC(C)CN(C[C@@H](O)[C@H](Cc1ccccc1)NS(=O)(=O)N(C)C)S(=O)(=O)N(C)C` [Compound 72], the Ki is 4000 nM.

On to `CC(=O)Nc1ccc(S(=O)(=O)N(CC2CCCC2)C[C@@H](O)[C@H](Cc2ccccc2)NC(=O)O[C@H]2CCOC2)cc1` [Compound 125, N-(4-(Cyclopentylmethyl-((2 syn,3S)-2-hydroxy-4-phenyl-3-((S)-tetrahydrofuran-3-yloxycarbonylamino)-butyl)-sulfamoyl)-phenyl)-acetamide], for which the Ki stood at 0.3 nM.

For `CC(C)CN(C[C@@H](O)[C@H](Cc1ccccc1)NC(=O)OC(C)(C)C)S(=O)(=O)c1ccc(F)cc1` [Compound 32], the Ki was 2.5 nM.

`CC(=O)Nc1nc(C)c(S(=O)(=O)N(CC(C)C)C[C@@H](O)[C@H](Cc2ccccc2)NC(=O)[C@H](CC(N)=O)NC(=O)c2ccc3ccccc3n2)s1` [Compound 18]: the Ki was less than 0.1 nM.

Consider `O=C(N[C@@H](Cc1ccccc1)[C@H](O)CN(CC1CCCC1)S(=O)(=O)c1ccc(Cl)cc1)OCc1cccnc1` [Compound 118], for which the Ki is less than 0.1 nM.

In the case of `CC(=O)Nc1cc(S(=O)(=O)N(CC(C)C)C[C@@H](O)[C@H](Cc2ccccc2)NC(=O)O[C@H]2CCOC2)ccc1F` [Compound 88, N-(2-Fluoro-5-(((2 syn,3S)-2-hydroxy-4-phenyl-3-((S)-tetrahydrofuran-3-yloxycarbonylamino)-butyl)-isobutyl-sulfamoyl)-phenyl)-acetamide], the Ki came to 1.4 nM.

Regarding `COc1ccc(S(=O)(=O)N(CC(C)C)C[C@@H](O)[C@H](Cc2ccccc2)NC(=O)OCc2cccnc2)cc1` [Compound 153], the Ki worked out at 0.2 nM.

As for `O=C(N[C@@H](Cc1ccccc1)[C@H](O)CN(CC1CCCC1)S(=O)(=O)c1ccc(OC(F)(F)F)cc1)O[C@H]1CCOC1` [Compound 151], the Ki amounted to 0.8 nM.

In the case of `C=C(C)COC(=O)N[C@@H](Cc1ccccc1)[C@H](O)CN(CC(C)C)S(=O)(=O)c1ccc(Cl)c(Cl)c1` [Compound 106], the Ki came out at 1.4 nM.

The Ki is a measure of affinity in units of concentration, obtained from inhibition or displacement.
